Experimental data reported in patent US20250339409A1, “USES OF PAN BET INHIBITORS” (VYNE THERAPEUTICS INC., priority 2021, published 2025).

What was measured:
[1] = system: IL-1β, IL-6, IL-8, IL-17, IL-18, IL-23, IL-36 and TNF-α; assay: Serum pro-inflammatory cytokine assays (Luminex, ELISA) in the imiquimod model; type: in vivo, female Balb/c mice; details: imiquimod-induced mice
Procedure: Immediately after the TEWL measurements on D14, mice are maintained under gas anesthesia and blood is taken from each mouse by intracardiac puncture. Blood samples are placed at +4° C. for 20 to 30 minutes before being centrifuged at 3000 rpm and +4° C. for 20 minutes. Serum is collected, frozen at −20° C. and then stored at −80° C. awaiting serum biomarkers assays (cytokines).
Assays of the 8 pro-inflammatory cytokines IL-1β, IL-6, IL-8, IL-17, IL-18, IL-23, IL-36 and TNF-α associated with psoriasis and other inflammatory diseases is performed on the isolated and frozen serum samples from blood collected at the end of the experiment on mice of the 7 experimental groups 1 to 7.
The Luminex® technique using magnetic beads technology and ProcartaPlex® immunoassay kit from the Invitrogen division of Thermofisher Scientific is used to perform the assays of the 7 multiplexed cytokines IL-1β, IL-6, IL-8, IL-17, IL-18, IL-23, and TNF-α. Analyte-specific antibodies for the 7 cytokines is pre-coated onto color-coded magnetic microparticles. Microparticles, standards and serum samples (non-diluted as recommended in the instruction manual) is pipetted into wells and the immobilized antibodies bind the analytes of interest. After washing away any unbound substances, a biotinylated antibody cocktail specific to the analytes of interest is added to each well. Following a wash to remove any unbound biotinylated antibody, streptavidin-phycoerythrin conjugate (Streptavidin-PE), which binds to the biotinylated antibody, is added to each well. A final wash removes unbound Streptavidin-PE and the microparticles is resuspended in buffer and read using a Bio-Rad Bio-Plex 200 Analyzer. A magnet in the analyzer captures and holds the superparamagnetic microparticles in a monolayer. Two spectrally distinct Light Emitting Diodes (LED) illuminate the microparticles. One LED identifies the analyte detected and the second LED determines the magnitude of the PE-derived signal, which is in direct proportion to the amount of the analyte bound. Each well is imaged with a Charged Coupled Device (CCD) camera. A representative standard curve from the 7 cytokines is diluted in a serial fourfold steps in specific standard buffer. Each standard, control and serum sample is analyzed in duplicate.
Quantitative sandwich Enzyme-Linked ImmunoSorbent Assay (ELISA) using mouse IL-36 immunoassay kit from the Invitrogen division of Thermofisher Scientific is used to perform the assay. A purified anti-mouse polyclonal antibody against the specific antigen IL-36 pre-coated onto a microplate is used. Standard, control, and serum samples, as recommended in the instruction manual, are pipetted into the wells and any mouse specific antigen present is bound by the immobilized antibody. After washing away any unbound substances, a biotin-conjugated anti-mouse IL-36 antibody is incubated in each well. Then, after washing, streptavidin-Horseradish Peroxidase (HRP) complex is added to the wells, allowing non-covalent biological interaction with biotin. Following several washes to remove any unbound complex, a TetraMethylBenzidine (TMB) substrate solution is added to the wells. The enzyme reaction yields a blue product that turns yellow when the stop solution is added. The intensity of the colour is measured at 450 nm and 570 nm using a microplate reader. The values of 570 nm are subtracted from those of 450 nm and data is in proportion to the amount of […] bound in the initial step. The serum samples values are then read off the standard curves. A representative standard curve from IL-36 is diluted in a serial two folds step in assay buffer. Each standard, control and serum sample is analyzed in duplicate.

right knee joint = assay: Toxicity in dogs after intra-articular injection: mortality, pathology, knee joint histopathology (Mankin score); type: in vivo; details: dog
Text: The purpose of this study was to determine the maximum tolerated dose and potential toxicity of BETi1 when administered by intra-articular injection to Beagle dogs and to determine local and systemic toxicokinetic characteristics associated with treatment of Beagle dogs with BETi1 formulations.
16 Beagle dogs (8 males, 8 females) were assigned to four treatment groups to determine toxicity of BETi1 formulations following intra-articular injection.
The experimental groups are presented below: • Group 1: Control; 0 mg of BETi1/animal dose • Group 2: Low Dose; 7.5 mg of BETi1/animal dose • Group 3: Mid Dose; 75 mg of BETi1/animal dose • Group 4: High Dose; 150 mg of BETi1/animal dose […]
Several features were measured in treated dogs, including viability, clinical observation, body weight, food consumption, clinical pathology (hematology, coagulation, serum chemistry, urinalysis), toxicokinetics, and pathology.
For all animals from the study, representative samples of organs and all gross lesions and masses from all groups were removed from fixative, trimmed, processed, embedded in paraffin, sectioned, stained with hematoxylin and eosin, and examined microscopically. […] A modified Semi-Quantitative Mankin scoring system was used to in evaluation of right knee joint histopathology, as shown in Table 48 below: […]

## Cn1cc(-c2cccc(O)c2Oc2ccccc2)c2cc[nH]c2c1=O [BETi1]
[1]; D14, listed as BETi1 0.001%
  Inflammatory Biomarkers, Mean score values, IL-1β: 49.00 pg/mL
  Inflammatory Biomarkers, Mean score values, IL-6: 123.25 pg/mL
  Inflammatory Biomarkers, Mean score values, IL-8: 41.82 pg/mL
  Inflammatory Biomarkers, Mean score values, IL-17: 74.77 pg/mL
  Inflammatory Biomarkers, Mean score values, IL-18: 241.77 pg/mL
  Inflammatory Biomarkers, Mean score values, IL-23: 51.02 pg/mL
  Inflammatory Biomarkers, Mean score values, IL-36: 65.63 pg/mL
  Inflammatory Biomarkers, Mean score values, TNF-α: 36.20 pg/mL
[1]; D14, listed as BETi1 0.1%
  Inflammatory Biomarkers, Mean score values, IL-1β: 24.31 pg/mL
  Inflammatory Biomarkers, Mean score values, IL-6: 56.29 pg/mL
  Inflammatory Biomarkers, Mean score values, IL-8: 21.40 pg/mL
  Inflammatory Biomarkers, Mean score values, IL-17: 25.08 pg/mL
  Inflammatory Biomarkers, Mean score values, IL-18: 138.90 pg/mL
  Inflammatory Biomarkers, Mean score values, IL-23: 20.66 pg/mL
  Inflammatory Biomarkers, Mean score values, IL-36: 26.91 pg/mL
  Inflammatory Biomarkers, Mean score values, TNF-α: 18.27 pg/mL
[1]; D14, listed as BETi1 1.0%
  Inflammatory Biomarkers, Mean score values, IL-1β: 39.46 pg/mL
  Inflammatory Biomarkers, Mean score values, IL-6: 96.09 pg/mL
  Inflammatory Biomarkers, Mean score values, IL-8: 23.50 pg/mL
  Inflammatory Biomarkers, Mean score values, IL-17: 54.13 pg/mL
  Inflammatory Biomarkers, Mean score values, IL-18: 202.85 pg/mL
  Inflammatory Biomarkers, Mean score values, IL-23: 33.19 pg/mL
  Inflammatory Biomarkers, Mean score values, IL-36: 52.58 pg/mL
  Inflammatory Biomarkers, Mean score values, TNF-α: 25.05 pg/mL
[1]; D14, listed as BETi10.01%
  Inflammatory Biomarkers, Mean score values, IL-1β: 32.62 pg/mL
  Inflammatory Biomarkers, Mean score values, IL-6: 74.31 pg/mL
  Inflammatory Biomarkers, Mean score values, IL-8: 30.82 pg/mL
  Inflammatory Biomarkers, Mean score values, IL-17: 33.44 pg/mL
  Inflammatory Biomarkers, Mean score values, IL-18: 146.86 pg/mL
  Inflammatory Biomarkers, Mean score values, IL-23: 30.04 pg/mL
  Inflammatory Biomarkers, Mean score values, IL-36: 30.38 pg/mL
  Inflammatory Biomarkers, Mean score values, TNF-α: 22.16 pg/mL
Right knee joint; intra-articular 7.5, 75, 150 mg, 28 days
  tolerability, synovium findings: overall well-tolerated
Right knee joint; intra-articular, 14-points scale
  total Mankin score, right knee joint: total Mankin score of zero except for one animal at 75 mg dose
